# Assay results as given in the supplement of paper PMC10307832.
# Experiments:
# Experiment in all cases: relative viability (nuclei count vs DMSO), 5 days (fraction); higher = more cells survive
# Axitinib + Tozasertib = compound: CNC(=O)c1ccccc1Sc1ccc2c(/C=C/c3ccccn3)n[nH]c2c1 [Axitinib] + Cc1cc(Nc2cc(N3CCN(C)CC3)nc(Sc3ccc(NC(=O)C4CC4)cc3)n2)n[nH]1 [Tozasertib] (partner 0.1 µM)
# Method in brief: (§1)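 Nuclei were stained with Hoechst during a one-step fixation (final 0.05% Triton X-100, 1% formaldehyde, 1 ug/ml Hoechst) carried out 5 days after dosing, then counted on 4× images. The cells, lung cancer lines in 1536-well plates, had been dosed by pin tool the day after seeding with one drug alone or a fixed anchor-drug dose plus five library-drug doses (not always all listed) in √10 steps. Relative viability is the nuclei count in treated wells divided by that in vehicle wells, and each value is the median of duplicate plates.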
# Bemcentinib + Navitoclax = compound: Nc1nc(Nc2ccc3c(c2)CC[C@@H](N2CCCC2)CC3)nn1-c1cc2c(nn1)-c1ccccc1CCC2 [Bemcentinib] + CC1(C)CCC(c2ccc(Cl)cc2)=C(CN2CCN(c3ccc(C(=O)NS(=O)(=O)c4ccc(N[C@H](CCN5CCOCC5)CSc5ccccc5)c(S(=O)(=O)C(F)(F)F)c4)cc3)CC2)C1 [Navitoclax] (partner 0.5 µM)
# Method in brief: as §1
# Axitinib + Bortezomib = compound: CNC(=O)c1ccccc1Sc1ccc2c(/C=C/c3ccccn3)n[nH]c2c1 [Axitinib] + CC(C)C[C@H](NC(=O)[C@H](Cc1ccccc1)NC(=O)c1cnccn1)B(O)O [Bortezomib] (partner 0.002 µM)
# Method in brief: as §1
# Bemcentinib + Pemetrexed = compound: Nc1nc(Nc2ccc3c(c2)CC[C@@H](N2CCCC2)CC3)nn1-c1cc2c(nn1)-c1ccccc1CCC2 [Bemcentinib] + Nc1nc2[nH]cc(CCc3ccc(C(=O)N[C@@H](CCC(=O)O)C(=O)O)cc3)c2c(=O)[nH]1 [Pemetrexed] (partner 0.2 µM)
# Method in brief: as §1
Cell Line,relative viability (Axitinib + Tozasertib; first compound 0.005 µM),relative viability (Axitinib + Tozasertib; first compound 0.01581 µM),relative viability (Axitinib + Tozasertib; first compound 0.05 µM),relative viability (Axitinib + Tozasertib; first compound 0.1581 µM),relative viability (Axitinib + Tozasertib; first compound 0.5 µM),relative viability (Bemcentinib + Navitoclax; first compound 0.04 µM),relative viability (Bemcentinib + Navitoclax; first compound 0.1265 µM),relative viability (Bemcentinib + Navitoclax; first compound 0.4 µM),relative viability (Bemcentinib + Navitoclax; first compound 1.265 µM),relative viability (Bemcentinib + Navitoclax; first compound 4 µM),relative viability (Axitinib + Bortezomib; first compound 0.005 µM),relative viability (Axitinib + Bortezomib; first compound 0.01581 µM),relative viability (Axitinib + Bortezomib; first compound 0.05 µM),relative viability (Axitinib + Bortezomib; first compound 0.1581 µM),relative viability (Axitinib + Bortezomib; first compound 0.5 µM),relative viability (Bemcentinib + Pemetrexed; first compound 0.04 µM),relative viability (Bemcentinib + Pemetrexed; first compound 0.1265 µM),relative viability (Bemcentinib + Pemetrexed; first compound 0.4 µM),relative viability (Bemcentinib + Pemetrexed; first compound 1.265 µM),relative viability (Bemcentinib + Pemetrexed; first compound 4 µM)
NCI-H1915,0.458,0.491,0.443,0.464,0.655,0.805,0.81,0.817,0.788,0.788,0.921,0.944,1.05,0.986,0.976,0.48,0.533,0.538,0.489,0.443
NCI-H2023,0.368,0.395,0.38,0.483,0.604,0.963,1.12,1.11,1.12,0.996,0.968,1,1.03,0.834,1.02,0.225,0.287,0.217,0.213,0.198
NCI-H3122,0.38,0.426,0.346,0.415,0.566,1.01,1.06,1.02,1,1.03,0.904,1.03,1.04,1.05,1.07,,0.222,0.213,0.194,0.2
NCI-H1650,0.448,0.382,0.49,0.411,0.482,1.1,1.29,0.946,1.33,1.16,0.209,0.208,0.191,0.195,0.22,0.327,0.337,0.414,0.391,0.364
NCI-H441,0.746,0.585,0.658,0.789,0.796,0.504,0.752,0.637,0.59,0.598,0.626,0.54,0.444,0.465,0.443,0.24,0.243,0.267,0.245,0.275
NCI-H2087,0.247,0.294,0.282,0.321,0.357,1.16,1.03,1.15,0.992,1.02,0.944,0.772,0.868,0.615,1.13,0.772,0.798,0.64,0.611,0.685
RERF-LC-KJ,0.458,0.485,0.535,0.573,0.52,0.815,0.805,0.983,1.01,0.947,1.12,1.12,1.02,1.14,1.19,0.467,0.46,0.464,0.463,0.449
NCI-H1437,0.403,0.465,0.406,0.459,0.511,1.09,1.16,1.23,1.13,1.15,0.515,0.542,0.55,0.446,0.589,0.305,0.323,0.322,0.362,0.331
NCI-H1651,0.853,0.701,0.73,0.876,0.877,0.966,1.16,1.35,1.14,1.24,0.926,0.942,0.934,0.889,0.857,0.548,0.592,0.646,0.475,0.614
PC-14,0.6,,0.553,0.558,0.758,1.07,1.12,1.16,1.05,0.997,1.04,0.894,0.81,0.826,1.08,0.131,0.13,0.139,0.141,0.124
NCI-H1666,0.684,0.638,0.643,0.7,0.706,0.864,0.942,1.01,0.866,1.03,0.938,0.881,0.97,0.922,0.92,0.884,0.845,0.813,0.885,0.827
HCC-44,1.07,1.14,0.702,1.02,1.19,1.09,1.13,1.01,1.12,1.02,0.925,0.859,0.855,0.89,1.01,0.676,0.665,0.684,0.723,0.679
PC-3 [JPC-3],0.96,0.899,1,0.855,1.03,0.803,0.827,0.865,0.848,0.826,0.98,,0.807,0.833,0.964,1.12,1.32,1.28,1.07,1.07
LC-2-ad,0.425,0.479,0.396,0.425,0.53,0.415,0.547,0.609,0.536,0.509,1.1,1.06,0.93,1.04,1.16,0.252,0.28,0.258,0.262,0.273
ChaGo-K-1,0.217,0.205,0.212,0.237,0.255,0.872,0.933,1.02,0.862,0.624,0.953,0.919,1.13,1.05,1.16,0.265,0.262,0.274,0.244,0.251
NCI-H460,0.394,0.515,0.525,0.413,0.624,0.994,1.47,1.45,1.23,1.34,1.09,1.07,0.975,0.96,1.37,0.0651,0.0562,0.0565,0.0602,0.0631
